Data taken from US12617795B2, “Substituted 6,7-dihydro-5H-pyrrolo[3,4-d]pyrimidines, 5,7-dihydrofuro[3,4-d]pyrimidines, and pyrido[2,3-d]pyrimidines as KCC2 modulators” (Astrazeneca AB, priority 2020, dated 2026).

Molecular target: T1, KCC2 (Homo sapiens, UniProt Q9H2X9)
T1 construct: expressed in transfected cells; host or cells: HEK293 cells electroporated (Maxcyte STX) with the pcDNA3.1 KCC2 plasmid
T1 sequence (Q9H2X9 1-1139): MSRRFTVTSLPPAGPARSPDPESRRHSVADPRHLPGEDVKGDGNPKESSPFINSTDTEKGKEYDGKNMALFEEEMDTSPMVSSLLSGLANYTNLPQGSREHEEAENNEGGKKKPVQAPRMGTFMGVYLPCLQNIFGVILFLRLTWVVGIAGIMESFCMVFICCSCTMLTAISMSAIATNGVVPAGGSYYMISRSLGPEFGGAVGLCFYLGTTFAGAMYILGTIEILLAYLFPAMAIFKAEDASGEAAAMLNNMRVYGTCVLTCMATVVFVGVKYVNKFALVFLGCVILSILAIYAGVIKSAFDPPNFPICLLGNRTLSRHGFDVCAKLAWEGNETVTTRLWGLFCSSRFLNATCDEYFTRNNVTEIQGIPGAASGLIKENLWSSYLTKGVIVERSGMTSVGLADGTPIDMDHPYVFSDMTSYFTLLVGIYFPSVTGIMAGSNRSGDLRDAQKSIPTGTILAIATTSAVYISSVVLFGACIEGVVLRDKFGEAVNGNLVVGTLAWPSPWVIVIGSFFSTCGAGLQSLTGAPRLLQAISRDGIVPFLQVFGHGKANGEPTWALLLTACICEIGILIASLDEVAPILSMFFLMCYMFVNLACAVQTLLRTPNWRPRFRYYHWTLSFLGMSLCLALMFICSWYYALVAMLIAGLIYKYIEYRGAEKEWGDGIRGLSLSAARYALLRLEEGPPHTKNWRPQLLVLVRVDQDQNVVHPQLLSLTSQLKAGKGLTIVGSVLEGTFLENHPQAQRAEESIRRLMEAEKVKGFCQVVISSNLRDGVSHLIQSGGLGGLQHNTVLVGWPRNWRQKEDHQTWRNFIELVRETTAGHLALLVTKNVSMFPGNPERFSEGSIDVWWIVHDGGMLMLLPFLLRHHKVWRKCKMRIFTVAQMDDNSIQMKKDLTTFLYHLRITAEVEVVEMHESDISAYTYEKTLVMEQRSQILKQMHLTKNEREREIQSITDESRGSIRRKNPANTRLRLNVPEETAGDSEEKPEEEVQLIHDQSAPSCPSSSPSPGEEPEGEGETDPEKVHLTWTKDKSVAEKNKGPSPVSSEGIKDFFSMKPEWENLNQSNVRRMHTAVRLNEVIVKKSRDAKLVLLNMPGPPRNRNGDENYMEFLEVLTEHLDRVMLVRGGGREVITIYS
Assay: KCC2 thallium transport FLIPR-based assay (Tl+ influx in HEK293 cells expressing KCC2)
Format: cell-based
Conditions: 90 min compound incubation at RT, thallium flux at 120 s used to determine EC50
Procedure: A thallium transport FLIPR-based assay was used to measure the ability of compounds to activate KCC2. KCC2 activity is assessed by measuring KCC2-dependent Tl^+ influx in a KCC2-expressing cell. The assay protocol was based on those described by Delpire et al (Proc Natl Acad Sci USA. 2009 Mar. 31; 106(13): 5383-5388) and Zhang et al (Journal of Biomolecular Screening 15(2): 2010).
KCC2 was synthesised and codon optimised by GeneArt based on the Uniprot sequence Q9H2X9. The final sequence was subcloned into pcDNA3.1.
HEK293 cells were grown in 10 layer cell stacks at 37° C., 5% CO2, in DMEM, 10% fetal calf serum and 2 mM Glutamine. The cells were detached by removing the media and washing the cell stack with 100 ml of PBS. The PBS was removed and 100 ml of 1× TrypLE was added and the cell stack returned to 37° C. for 5 min. The detached cells were then counted in a Vi Cell counter and spun for 10 min at 1250 rpm in a Sorval Legend centrifuge. The cells were diluted down in Maxcyte electroporation buffer at 4× the final concentration and spun as before. The cell pellet was resuspended at 1×10^8/cells per ml and electroporated in a Maxcyte Cl 2.2 bag on a Maxcyte STX machine via the HEK293 programme with 200 ug/ml of plasmid DNA. The cells were then allowed to recover for 30 min before adding to 500 ml of PBS and then counted again on the Vi Cell. The cells were then frozen down in planer controlled rate freeze in 90% complete media, 10% DMSO.
All reagents were dispensed using a Mulitdrop Combi unless stated otherwise. All FluXOR Invitrogen propriety buffer compositions are mentioned in tables below.
HEK293 KCC2 cells were harvested at a density of 3.33×10^5 cells/mL in complete media (DMEM, Sigma, D6546, 10% fetal calf serum and 1% Glutamax) and 30 μL per well seeded into 384-well PDL coated black-clear plates (Corning, 354663). Leave cells at RT for 20 mins to settle before incubating for 48 h at 37° C., 5% CO2. Following incubation, perform three wash steps in HBSS (Sigma, H6648) using a Biotek cell washer with the final aspiration leaving 20 μL HBSS residual volume in each well. A further 20 μL per well of thallium loading dye is then added (1 h, RT, protect from light). 5 μL of test compounds (100 μM top concentration, 1:2 dilutions, 12 point curve) were added using the FLIPR TETRA and incubated at RT for 90 min in the dark. Following compound incubation, the thallium flux response is read on FLIPR TETRA (ex. 515-575 nm) which is initiated by FLIRR TETRA dispensing 5 μL stimulus buffer into each well. Recordings are measured every 1 second for 120 seconds. Thallium flux at 120 s used to determine EC50.
Compound buffer: Assay buffer with 1 μL of bumetanide per 10 ml.

SMILES | EC50 [µM]
C[C@@H]1CN(c2nc(Nc3ccc(C4CCCCC4)cc3)c3cc(Br)cnc3n2)CCO1 [Example 97, 6-bromo-N-(4-cyclohexylphenyl)-2-[(2R)-2-methylmorpholin-4-yl]pyrido[2,3-d]pyrimidin-4-amine] | 1.35
C#CCCC1(CCOc2ccc(-c3ccc(Nc4nc(N5CCOCC5)nc5c4CN(C(C)C)C5=O)cc3)cc2)N=N1 [Example 70, 4-[(4′-{2-[3-(but-3-yn-1-yl)-3H-diaziren-3-yl]ethoxy}[1,1′-biphenyl]-4-yl)amino]-2-(morpholin-4-yl)-6-(propan-2-yl)-5,6-dihydro-7H-pyrrolo[3,4-d]pyrimidin-7-one] | 1.83
CC(C)N1Cc2c(Nc3ccc(C(C)(C)C)cc3)nc(N3CCOCC3)nc2C1=O [Example 87, 4-[(4-tert-butylphenyl)amino]-2-(morpholin-4-yl)-6-(propan-2-yl)-5,6-dihydro-7H-pyrrolo[3,4-d]pyrimidin-7-one] | 8.18
CC(C)N1Cc2c(Nc3ccc(C4CCCCC4)cc3)nc(-c3cnn(C)c3)nc2C1=O [Example 47, 4-[(4-cyclohexylphenyl)amino]-2-(1-methyl-1H-pyrazol-4-yl)-6-(propan-2-yl)-5,6-dihydro-7H-pyrrolo[3,4-d]pyrimidin-7-one] | 3.16
Cc1ccccc1-c1ccc(Nc2nc(C3=CCOCC3)nc3c2CN(C(C)C)C3=O)cc1 [Example 80, 2-(3,6-dihydro-2H-pyran-4-yl)-6-isopropyl-4-((2′-methyl-[1,1′-biphenyl]-4-yl)amino)-5,6-dihydro-7H-pyrrolo[3,4-d]pyrimidin-7-one] | 1.8
CCc1cnc2nc(N3CCO[C@H](C)C3)nc(Nc3ccc(C4CCCCC4)cc3)c2c1 [Example 100, (R)—N-(4-cyclohexylphenyl)-6-ethyl-2-(2-methylmorpholino) pyrido[2,3-d]pyrimidin-4-amine] | 6.3
CC(C)N1Cc2c(Nc3ccc(-c4ccc(Cl)c(Cl)c4)cc3)nc(N3CCOCC3)nc2C1=O [Example 85, 4-[(3′,4′-dichloro[1,1′-biphenyl]-4-yl)amino]-2-(morpholin-4-yl)-6-(propan-2-yl)-5,6-dihydro-7H-pyrrolo[3,4-d]pyrimidin-7-one] | 8.41
Cc1cc(-c2nc(Nc3ccc(C4CCCCC4)cc3)c3c(n2)C(=O)N(C(C)C)C3)ccn1 [Example 44, 4-[(4-cyclohexylphenyl)amino]-2-(2-methylpyridin-4-yl)-6-(propan-2-yl)-5,6-dihydro-7H-pyrrolo[3,4-d]pyrimidin-7-one] | 0.901
CCN(CC)c1nc(Nc2ccc(C(C)C)cc2)c2c(n1)C(=O)N(C(C)C)C2 [Example 1, 2-(Diethylamino)-6-isopropyl-4-((4-isopropylphenyl)amino)-5,6-dihydro-7H-pyrrolo[3,4-d]pyrimidin-7-one] | 1.71

Continued by falling EC50, values first:

EC50 [µM] | SMILES
6.89 | C#CCN1Cc2c(Nc3ccc(C(C)C)cc3)nc(N3CCOCC3)nc2C1=O [Example 76, 2-(morpholin-4-yl)-4-{[4-(propan-2-yl)phenyl]amino}-6-(prop-2-yn-1-yl)-5,6-dihydro-7H-pyrrolo[3,4-d]pyrimidin-7-one]
6.36 | CC(C)c1ccc(Nc2nc(-c3ccncc3)nc3c2CN(C(C)C)C3=O)cc1 [Example 40, 6-isopropyl-4-((4-isopropylphenyl)amino)-2-(pyridin-4-yl)-5,6-dihydro-7H-pyrrolo[3,4-d]pyrimidin-7-one]
6.3 | CC(C)N1Cc2c(Nc3ccc(C4CCCCC4)cc3)nc(N(C)CC(F)F)nc2C1=O [Example 36, 4-[(4-cyclohexylphenyl)amino]-2-[(2,2-difluoroethyl)(methyl)amino]-6-(propan-2-yl)-5,6-dihydro-7H-pyrrolo[3,4-d]pyrimidin-7-one]
5.76 | CC(C)N1Cc2c(Nc3ccc(OC4CCCC4)cc3)nc(N3CCO[C@H](C)C3)nc2C1=O [Example 64, 4-{[4-(cyclopentyloxy)phenyl]amino}-2-[(2R)-2-methylmorpholin-4-yl]-6-(propan-2-yl)-5,6-dihydro-7H-pyrrolo[3,4-d]pyrimidin-7-one]
4.46 | CCCc1ccc(Nc2nc(N3CCOC(C4CC4)C3)nc3c2CN(C(C)C)C3=O)cc1 (stereo not drawn) [Example 59, 2-(2-cyclopropylmorpholin-4-yl)-6-(propan-2-yl)-4-[(4-propylphenyl)amino]-5,6-dihydro-7H-pyrrolo[3,4-d]pyrimidin-7-one]
3.79 | C[C@@H]1CN(c2nc(Nc3ccc(C4CCCCC4)cc3)c3ccc[n+]([O-])c3n2)CCO1 [Example 99, (R)-4-((4-cyclohexylphenyl)amino)-2-(2-methylmorpholino)pyrido [2,3-d]pyrimidine 8-oxide]
3.51 | CC(C)N1Cc2c(Nc3ccc(-c4ccc(Cl)cc4)cc3)nc(N3CCOCC3)nc2C1=O [Example 89, 4-[(4′-chloro[1,1′-biphenyl]-4-yl)amino]-2-(morpholin-4-yl)-6-(propan-2-yl)-5,6-dihydro-7H-pyrrolo[3,4-d]pyrimidin-7-one]
3.08 | CC(C)N1Cc2c(Nc3ccc(C4CCCCC4)cc3)nc(C3CCOCC3)nc2C1=O [Example 78, 4-((4-cyclohexylphenyl)amino)-6-isopropyl-2-(tetrahydro-2H-pyran-4-yl)-5,6-dihydro-7H-pyrrolo[3,4-d]pyrimidin-7-one]
2.73 | C[C@@H]1CN(c2nc(Nc3ccc(C4CCCCC4)cc3)c3c(n2)C(=O)N(CCN(C)C)C3)CCO1 [Example 73, 4-[(4-cyclohexylphenyl)amino]-6-[2-(dimethylamino)ethyl]-2-[(2R)-2-methylmorpholin-4-yl]-5,6-dihydro-7H-pyrrolo[3,4-d]pyrimidin-7-one]
1.97 | C[C@@H]1CN(c2nc(Nc3ccc(C4CCCCC4)cc3)c3cc(N)cnc3n2)CCO1 [Example 108, (R)—N4-(4-cyclohexylphenyl)-2-(2-methylmorpholino)pyrido[2,3-d]pyrimidine-4,6-diamine]
1.15 | CC(C)N1Cc2c(Nc3ccc(C4CCCCC4)cc3)nc(C3=CCOCC3)nc2C1=O [Example 45, 4-[(4-cyclohexylphenyl)amino]-2-(3,6-dihydro-2H-pyran-4-yl)-6-(propan-2-yl)-5,6-dihydro-7H-pyrrolo[3,4-d]pyrimidin-7-one]
0.917 | CC(C)N1Cc2c(Nc3ccc(-c4ccc(OCCNC(=O)OC(C)(C)C)cc4)cc3)nc(N3CCOC(C4CC4)C3)nc2C1=O (stereo not drawn) [Example 66, tert-butyl {2-[(4′-{[2-(2-cyclopropylmorpholin-4-yl)-7-oxo-6-(propan-2-yl)-6,7-dihydro-5H-pyrrolo[3,4-d]pyrimidin-4-yl]amino}[1,1′-biphenyl]-4-yl)oxy]ethyl}carbamate]
